# Reference: US11459387B2, “Anti-CD147 antibody” (DAIICHI SANKYO COMPANY, LIMITED, priority 2017, dated 2022)
# Legend:
# [1] = tested on: human pancreatic line MIA PaCa-2; assay: MIA PaCa-2 pancreatic xenograft model in NOD-scid mice, humanized antibodies; format: in vivo; conditions: gemcitabine 400 mg/kg ip 7 and 14 days after the inoculation
# Protocol: 5×10^6 cells of human pancreatic line MIA PaCa-2 were suspended in PBS containing 50% GFR-Matrigel (Corning Inc., Cat. 354230), and the suspension was inoculated subcutaneously into the axilla of 4 week-old female NOD-scid mice (NOD. CB17-Prkdc/J, purchased from CHARLES RIVER LABORATORIES JAPAN, INC). […] As a control drug, gemcitabine (purchased from Eli Lilly Japan K.K.) that is a standard therapeutic agent for pancreatic cancer was administered intraperitoneally to cancer-bearing mice at 400 mg/kg 7 and 14 days after the inoculation (n=5). The major axis and the minor axis of the inoculated tumor were measured twice a week using an electronic digital caliper (available from MITUTOYO CORPORATION) to calculate the tumor volume by the following formula.
# [2] = tested on: human pancreatic line BxPC-3; assay: SMAD4-negative BxPC-3 pancreatic cancer-bearing model in BALB/c-nu mice; format: in vivo; conditions: gemcitabine 200 mg/kg via the tail vein 8, 15, 22 days after the inoculation
# Text: The transcription factor, SMAD4, is known as one of the molecules important for activation of SMAD signaling (Zang, et al., Current Biology, 270-276, 1997). It is known that SMAD signaling is partially impaired due to genetic defects of SMAD4 in some pancreatic cancers (Hahn, et al., Science, 350-353, 1996). […] 2.5×10^6 cells of human pancreatic line BxPC-3 (ATCC, Cat. CRL-1687) were suspended in PBS containing […] (Corning Inc., Cat. 354234), and the suspension was inoculated subcutaneously into the axilla of 6 week-old female BALB/c-nu mouse (CAnN. Cg-Foxn1nu/CrlCrlj, purchased from CHARLES RIVER LABORATORIES JAPAN, INC). […] As a control drug, gemcitabine (Eli Lilly Japan K.K., Gemzar®) that is a therapeutic agent for pancreatic cancer was administered to mice bearing tumor via the tail vein at 200 mg/kg 8, 15, 22 days after the inoculation (n=5). The major axis and the minor axis of the inoculated tumor were measured twice a week using an electronic digital caliper (available from MITUTOYO CORPORATION) to calculate the tumor volume by the following formula. Tumor volume (mm^3)=½×minor axis (mm)×minor axis (mm)×major axis (mm)
# [3] = tested on: gemcitabine-resistant MIA PaCa-2 tumors; assay: Gemcitabine-resistant MIA PaCa-2 pancreatic cancer tumor model in NOD-scid mice; format: in vivo, human
# Text: The antitumor efficacy of the CD147 antibody in a gemcitabine-resistant pancreatic cancer tumor model was investigated. 5×10^6 cells of human pancreatic line MIA PaCa-2 were suspended in PBS containing 50% GFR-Matrigel (Corning Inc., Cat. 354230), and the suspension was inoculated subcutaneously into the axilla of 5 week-old female NOD-scid mice (NOD. CB17-Prkdc/J, CHARLES RIVER LABORATORIES JAPAN, INC). Gemcitabine (Eli Lilly Japan K.K.), which is a standard therapeutic agent for pancreatic cancer, was intraperitoneally administered at 400 mg/kg 6 days after the inoculation, and grouping of mice in which gemcitabine-resistant tumors were confirmed to grow was performed based on tumor size one week later. Gemcitabine was intraperitoneally administered to the control group at 400 mg/kg (n=5) 13 days (grouping date) and 20 days after the inoculation. […] The major axis and the minor axis of the inoculated tumor were measured twice a week using an electronic digital caliper (available from MITUTOYO CORPORATION) to calculate the tumor volume by the following formula. […]
# [4] = tested on: human pancreatic line MIA PaCa-2; assay: MIA PaCa-2 model in Nude mice, humanized antibodies with different binding activities; format: in vivo; conditions: gemcitabine 400 mg/kg via the tail vein 3 and 10 days after the inoculation
# Protocol: 5×10^6 cells of human pancreatic line MIA PaCa-2 were suspended in PBS containing 50% GFR-Matrigel (Corning Inc., Cat. 354230), and the suspension was inoculated subcutaneously into the axilla of 4-week old female Nude mice (BALB/c Slc-nu/nu, purchased from Japan SLC, Inc). […] As a control drug, gemcitabine (purchased from Eli Lilly Japan K.K.), which is a standard therapeutic agent for pancreatic cancer, was administered to cancer-bearing mice via the tail vein at 400 mg/kg 3 and 10 days after the inoculation (n=6). The major axis and the minor axis of the inoculated tumor were measured twice a week using an electronic digital caliper (available from MITUTOYO CORPORATION) to calculate the tumor volume by the following formula. Tumor volume (mm^3)=½×minor axis (mm)×minor axis (mm)×major axis (mm)
structure (smiles),measurement,setting,value
"Nc1ccn([C@@H]2O[C@H](CO)[C@@H](O)C2(F)F)c(=O)n1 [gemcitabine, reference compound]",tumor disappearance (in words),[1],no tumor disappearance was recognized
same,tumor growth inhibition rate,[1]; NOD-scid mice,71%
same,sensitivity of BxPC-3 tumor (in words),[2],resistant
same,average tumor size,"[3]; gemcitabine 400 mg/kg ip 6, 13 and 20 days after the inoculation, 28 days after the inoculation",1269 mm^3
same,regressing tumors (in words),[3]; gemcitabine 400 mg/kg ip alone,no regressing tumors were observed
same,tumor growth inhibition rate,[4],66%
